Experimental findings from article PMC4770715, “LIM kinase inhibitors disrupt mitotic microtubule organization and impair tumor cell proliferation” (Oncotarget, 2015) are described below.

What all share (assay): biochemical
Common to all, as to design: KINOMEscan active-site competition binding, percent of control (100 = no competition)
Common to all, as to conditions: competition binding, percent control

Assay [1] addresses INSRR (Homo sapiens, UniProt P14616).
Assay [2] addresses T1, ABL1(F317I)-nonphosphorylated (Homo sapiens, UniProt P00519, F317I).
T1 construct: nonphosphorylated

The target of assay [3] is AKT1 (Homo sapiens, UniProt P31749).
Assay [4] has as its target T2, ABL1(E255K)-phosphorylated (Homo sapiens, UniProt P00519, E255K).
T2 construct: phosphorylated

Assay [5] has as its target RAF1 (Homo sapiens, UniProt P04049).
In assay [6] the target is TNNI3K (Homo sapiens, UniProt Q59H18).
The target of assay [7] is GRK7 (Homo sapiens, UniProt Q8WTQ7).
The target in assay [8] is T3, YSK4 (Homo sapiens, UniProt Q56UN5).
T3 construct: gene MAP3K19

In assay [9] the target is CSNK1A1 (Homo sapiens, UniProt P48729).
In assay [10] the target is CAMK1 (Homo sapiens, UniProt Q14012).
Assay [11] has as its target EPHB6 (Homo sapiens, UniProt O15197).
Assay [12] concerns the target DMPK (Homo sapiens, UniProt Q09013).
In assay [13] the target is CDKL2 (Homo sapiens, UniProt Q92772).
For assay [14], the target named is CDK2 (Homo sapiens, UniProt P24941).
Assay [15] has as its target T4, ABL1-nonphosphorylated (Homo sapiens, UniProt P00519).
T4 construct: nonphosphorylated

In assay [16] the target is PRKCI (Homo sapiens, UniProt P41743).
Assay [17] concerns the target T5, IKK-alpha (Homo sapiens, UniProt O15111).
T5 construct: gene CHUK

For assay [18], the target named is EGFR(L747-S752del, P753S) (Homo sapiens, UniProt P00533, DEL747-752/P753S).
Assay [19] concerns the target BMPR2 (Homo sapiens, UniProt Q13873).
The target of assay [20] is CAMK1D (Homo sapiens, UniProt Q8IU85).
Assay [21] deals with T6, YSK1 (Homo sapiens, UniProt O00506).
T6 construct: gene STK25

Assay [22] addresses T7, CDC2L2 (Homo sapiens, UniProt Q9UQ88).
T7 construct: gene CDK11A

In assay [23] the target is ZAP70 (Homo sapiens, UniProt P43403).

Structures are written as SMILES.

CDKL2, sequence (Q92772 whole entry): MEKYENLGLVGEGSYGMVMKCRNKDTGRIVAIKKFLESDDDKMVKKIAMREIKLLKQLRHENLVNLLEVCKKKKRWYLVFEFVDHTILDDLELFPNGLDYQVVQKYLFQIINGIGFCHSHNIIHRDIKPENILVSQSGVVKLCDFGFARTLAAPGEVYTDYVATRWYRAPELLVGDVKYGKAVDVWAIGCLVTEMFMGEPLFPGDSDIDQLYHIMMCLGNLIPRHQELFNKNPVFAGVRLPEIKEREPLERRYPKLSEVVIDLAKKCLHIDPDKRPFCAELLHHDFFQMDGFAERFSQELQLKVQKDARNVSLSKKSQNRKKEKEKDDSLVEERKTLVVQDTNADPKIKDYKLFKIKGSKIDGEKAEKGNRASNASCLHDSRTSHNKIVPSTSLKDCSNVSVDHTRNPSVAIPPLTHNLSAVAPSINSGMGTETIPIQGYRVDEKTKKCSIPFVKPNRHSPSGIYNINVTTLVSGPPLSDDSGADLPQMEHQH
AKT1, sequence (P31749 whole entry): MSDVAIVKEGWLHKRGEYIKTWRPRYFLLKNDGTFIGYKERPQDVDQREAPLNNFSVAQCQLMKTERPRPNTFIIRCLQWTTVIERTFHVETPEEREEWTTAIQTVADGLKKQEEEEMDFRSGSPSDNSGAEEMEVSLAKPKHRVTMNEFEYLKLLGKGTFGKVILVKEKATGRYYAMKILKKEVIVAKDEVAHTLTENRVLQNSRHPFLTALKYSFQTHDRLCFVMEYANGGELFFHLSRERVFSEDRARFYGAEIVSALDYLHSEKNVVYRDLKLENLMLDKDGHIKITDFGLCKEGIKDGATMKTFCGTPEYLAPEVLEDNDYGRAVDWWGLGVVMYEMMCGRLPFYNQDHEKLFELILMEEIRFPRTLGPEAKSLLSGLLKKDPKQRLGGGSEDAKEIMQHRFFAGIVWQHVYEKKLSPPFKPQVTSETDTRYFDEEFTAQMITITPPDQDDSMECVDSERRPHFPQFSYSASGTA
T5 sequence (O15111 whole entry): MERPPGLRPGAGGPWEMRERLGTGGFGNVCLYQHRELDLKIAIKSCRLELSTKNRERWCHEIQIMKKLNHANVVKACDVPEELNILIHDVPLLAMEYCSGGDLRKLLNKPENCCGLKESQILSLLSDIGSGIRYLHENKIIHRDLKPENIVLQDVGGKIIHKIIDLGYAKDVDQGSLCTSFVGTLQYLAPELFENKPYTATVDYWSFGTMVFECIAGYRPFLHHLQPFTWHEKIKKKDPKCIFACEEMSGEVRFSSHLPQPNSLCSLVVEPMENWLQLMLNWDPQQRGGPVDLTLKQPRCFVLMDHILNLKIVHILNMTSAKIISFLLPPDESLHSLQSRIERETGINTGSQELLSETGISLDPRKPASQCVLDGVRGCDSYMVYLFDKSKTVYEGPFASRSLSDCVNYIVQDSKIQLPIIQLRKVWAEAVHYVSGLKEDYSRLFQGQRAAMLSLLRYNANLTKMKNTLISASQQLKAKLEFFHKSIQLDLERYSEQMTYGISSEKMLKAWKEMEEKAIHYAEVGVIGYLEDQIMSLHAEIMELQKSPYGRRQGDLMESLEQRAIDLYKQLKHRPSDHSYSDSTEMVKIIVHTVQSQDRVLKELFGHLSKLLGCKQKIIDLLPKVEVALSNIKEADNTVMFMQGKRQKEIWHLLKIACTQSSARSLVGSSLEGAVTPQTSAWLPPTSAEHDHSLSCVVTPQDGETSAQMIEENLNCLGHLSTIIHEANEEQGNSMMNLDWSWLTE
EGFR(L747-S752del, P753S), sequence (P00533 with tags, fused parts or gaps DEL747-752/P753S): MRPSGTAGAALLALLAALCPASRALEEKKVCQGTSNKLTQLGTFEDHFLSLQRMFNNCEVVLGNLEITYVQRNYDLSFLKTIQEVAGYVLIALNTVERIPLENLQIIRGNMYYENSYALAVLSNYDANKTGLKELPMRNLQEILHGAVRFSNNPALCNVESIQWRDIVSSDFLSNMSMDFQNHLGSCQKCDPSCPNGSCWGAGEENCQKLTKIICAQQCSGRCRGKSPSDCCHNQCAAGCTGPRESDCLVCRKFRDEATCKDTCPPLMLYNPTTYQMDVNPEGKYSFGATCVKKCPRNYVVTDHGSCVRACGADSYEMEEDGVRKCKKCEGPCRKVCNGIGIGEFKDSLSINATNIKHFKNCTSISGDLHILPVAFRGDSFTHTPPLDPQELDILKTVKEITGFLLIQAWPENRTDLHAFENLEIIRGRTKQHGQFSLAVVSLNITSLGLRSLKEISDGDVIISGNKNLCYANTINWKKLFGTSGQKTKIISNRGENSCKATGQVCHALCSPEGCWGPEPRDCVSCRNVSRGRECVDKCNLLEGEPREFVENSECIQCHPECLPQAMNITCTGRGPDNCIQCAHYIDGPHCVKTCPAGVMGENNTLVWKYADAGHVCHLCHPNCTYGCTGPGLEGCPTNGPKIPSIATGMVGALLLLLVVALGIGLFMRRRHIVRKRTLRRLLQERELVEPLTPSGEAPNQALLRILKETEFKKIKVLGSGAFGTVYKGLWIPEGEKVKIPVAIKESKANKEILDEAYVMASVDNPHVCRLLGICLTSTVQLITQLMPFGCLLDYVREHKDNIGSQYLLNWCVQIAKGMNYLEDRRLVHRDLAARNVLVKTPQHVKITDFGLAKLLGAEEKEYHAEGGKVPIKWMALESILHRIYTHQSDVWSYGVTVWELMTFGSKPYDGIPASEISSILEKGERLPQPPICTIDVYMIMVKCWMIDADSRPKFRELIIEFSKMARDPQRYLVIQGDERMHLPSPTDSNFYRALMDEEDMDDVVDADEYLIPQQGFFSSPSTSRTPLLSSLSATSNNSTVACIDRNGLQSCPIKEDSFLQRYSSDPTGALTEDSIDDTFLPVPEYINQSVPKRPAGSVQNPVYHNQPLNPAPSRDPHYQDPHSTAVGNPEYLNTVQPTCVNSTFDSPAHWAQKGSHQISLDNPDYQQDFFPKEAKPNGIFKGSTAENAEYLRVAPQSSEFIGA
INSRR, sequence (P14616 whole entry): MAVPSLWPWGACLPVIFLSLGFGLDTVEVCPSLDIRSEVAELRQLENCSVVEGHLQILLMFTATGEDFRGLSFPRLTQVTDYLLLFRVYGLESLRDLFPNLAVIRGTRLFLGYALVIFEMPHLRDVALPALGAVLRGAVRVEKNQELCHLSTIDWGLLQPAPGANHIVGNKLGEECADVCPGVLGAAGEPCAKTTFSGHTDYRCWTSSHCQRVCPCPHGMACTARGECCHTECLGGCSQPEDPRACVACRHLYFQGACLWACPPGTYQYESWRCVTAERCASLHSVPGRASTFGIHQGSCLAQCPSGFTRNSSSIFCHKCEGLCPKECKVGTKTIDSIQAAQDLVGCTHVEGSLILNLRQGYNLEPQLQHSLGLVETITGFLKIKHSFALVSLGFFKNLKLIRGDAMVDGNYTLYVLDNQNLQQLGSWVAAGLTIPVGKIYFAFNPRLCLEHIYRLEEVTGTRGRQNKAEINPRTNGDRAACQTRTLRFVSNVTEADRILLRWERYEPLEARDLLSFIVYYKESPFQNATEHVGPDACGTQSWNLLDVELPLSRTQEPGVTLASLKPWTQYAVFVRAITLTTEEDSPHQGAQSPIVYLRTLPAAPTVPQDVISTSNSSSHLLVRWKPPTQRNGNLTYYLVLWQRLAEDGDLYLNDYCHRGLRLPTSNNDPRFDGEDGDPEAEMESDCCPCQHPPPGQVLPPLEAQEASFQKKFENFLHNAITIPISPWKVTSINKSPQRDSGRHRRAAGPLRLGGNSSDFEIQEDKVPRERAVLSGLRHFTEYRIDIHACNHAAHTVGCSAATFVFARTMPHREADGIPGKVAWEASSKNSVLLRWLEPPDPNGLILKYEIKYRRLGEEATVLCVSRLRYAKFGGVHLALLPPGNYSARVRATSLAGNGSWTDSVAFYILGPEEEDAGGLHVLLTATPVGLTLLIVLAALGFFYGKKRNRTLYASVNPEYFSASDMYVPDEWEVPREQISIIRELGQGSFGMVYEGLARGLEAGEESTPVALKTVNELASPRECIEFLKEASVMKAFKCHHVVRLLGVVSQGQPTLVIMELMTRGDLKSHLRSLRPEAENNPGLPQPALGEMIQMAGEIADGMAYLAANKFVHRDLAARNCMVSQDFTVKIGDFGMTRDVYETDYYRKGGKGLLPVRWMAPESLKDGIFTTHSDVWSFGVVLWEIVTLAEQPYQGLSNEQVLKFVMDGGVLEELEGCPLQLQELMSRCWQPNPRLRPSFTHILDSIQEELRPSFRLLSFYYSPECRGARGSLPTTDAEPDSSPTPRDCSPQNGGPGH
RAF1, sequence (P04049 whole entry): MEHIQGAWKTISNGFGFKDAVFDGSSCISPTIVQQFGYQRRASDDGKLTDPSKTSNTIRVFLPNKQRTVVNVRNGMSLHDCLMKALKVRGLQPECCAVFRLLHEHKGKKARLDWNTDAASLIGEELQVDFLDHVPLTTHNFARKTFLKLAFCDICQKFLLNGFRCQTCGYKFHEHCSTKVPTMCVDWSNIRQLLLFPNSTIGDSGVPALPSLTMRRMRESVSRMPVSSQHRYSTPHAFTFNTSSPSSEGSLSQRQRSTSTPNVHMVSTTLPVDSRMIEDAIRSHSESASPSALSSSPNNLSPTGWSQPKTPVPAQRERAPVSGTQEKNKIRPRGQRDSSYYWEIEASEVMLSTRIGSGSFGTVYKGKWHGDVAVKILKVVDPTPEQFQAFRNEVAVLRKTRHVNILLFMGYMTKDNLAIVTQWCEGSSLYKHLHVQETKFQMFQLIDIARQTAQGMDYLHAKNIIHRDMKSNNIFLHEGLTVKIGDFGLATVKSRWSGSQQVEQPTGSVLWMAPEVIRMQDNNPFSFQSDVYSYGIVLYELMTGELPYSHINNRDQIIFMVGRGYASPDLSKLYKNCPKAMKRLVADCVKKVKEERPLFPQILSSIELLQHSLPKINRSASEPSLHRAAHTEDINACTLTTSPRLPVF

Take `COc1ccc(-c2cnccc2-c2cnc(NC(=O)C(C)C)s2)c(C(F)(F)F)c1` [CRT0105446, N-{5-[3-(4-Methoxy-2-trifluoromethyl-phenyl)-pyridin-4-yl]-hiazol-2-yl}-isobutyramide]: the remaining binding at 10 µM in assay [1] turned out to be 96%; in [2], 100%; in [3] it was 100%; in [4] it was 78%; in assay [5] it was 100%; in [6], 93%. Moreover, the remaining binding at 10 µM in assay [7] was found to be 58%; in [8], 90%; in assay [9], 100%; in [10], 62%; in [11], 86%; in assay [12], 100%. Besides, the remaining binding at 10 µM in assay [13] came to 2.2%; in assay [14], 0.9%; in assay [15] it was 82%; in [16] it was 81%; in assay [17] it was 89%; in assay [18], 92%. Besides, the remaining binding at 10 µM in [19] was found to be 100%; in assay [20], 79%; in assay [21] it was 100%; in [22], 59%; in [23], 86%.

Regarding `Cc1ccc(-c2cnccc2-c2cnc(Nc3ccc(O)cc3)s2)c(Cl)c1` [CRT0105950, 4-{5-[3-(2-Chloro-4-methyl-phenyl)-pyridin-4-yl]-thiazol-2-ylamino}-phenol], the remaining binding at 10 µM in assay [1] is 0.15%; in assay [2], 93%; in [3], 100%; in assay [4] it was 79%; in assay [5] it was 85%; in assay [6], 43%. For the same compound, the remaining binding at 10 µM stood at 16% in [7]; 53% in assay [8]; 88% in assay [9]; 9.4% in assay [10]; 17% in [11]; 100% in [12]. Moreover, the remaining binding at 10 µM in assay [13] was 0.6%; in assay [14] it was 0.2%; in [15], 43%; in [16], 79%; in assay [17] it was 94%; in [18] it was 66%. Also, the remaining binding at 10 µM in assay [19] came to 8.9%; in assay [20], 63%; in assay [21] it was 22%; in [22], 89%; in [23], 99%.
